Literature values, collected in US12290522B2, “Method of treating amyotrophic lateral sclerosis” (Woolsey Pharmaceuticals, Inc., priority 2021, dated 2025).

Conditions: in vivo; 1-hydroxy metabolite; Shibuya 2001; cited from earlier work

O=S(=O)(c1cccc2c(O)nccc12)N1CCCNCC1 [M3]
half-life: about 8 hours
